The record followed here is patent US6476021B1 (priority 1997, dated 2002).

pIC50: −log10 of the molar value. Structures can show the parent of a compound that is named as a salt.

The conditions of data set [1]: rat, in vivo, 100 mg/kg.
The next data set deals with PDE type V (Canis lupus familiaris, UniProt O77746). The experiment in a line: biochemical.
The target of another data set is PDE type VI (Bos taurus, UniProt P11541+P23439). Nature of the data set: biochemical.
The conditions of data set [2]: intranasal administration.
The nature of the next data set: in vivo. Particulars: male, Wistar, rat, plasma, inhaled or intranasal, 0.3 mg/kg.
For data set [3] the following is noted: rats.
Description: (§1) Eight-week-old male Wistar rats were anesthetized with intraperitoneal injection of urethane at 1 g/kg. The cervical portion was incised so that the trachea was exposed, and a polyethylene tube (SP120, Natsume) was inserted into the trachea. Then, a part of the esophagus was incised and a polyethylene tube with the same diameter was inserted into postnasal cavity, the tip was closed with absorbent cotton and glue. Leak of the drug solution from the nasoplatine was avoided by closing it with synthetic glue. Drugs were dissolved in 0.1% tartaric acid solution and administered through the nostrils at 500 μl/kg with micropipette and the nostrils were rapidly closed with glue. For the control, drugs were intravenously administered to rats. Constant volume of blood was intermittently collected from the tail vein into heparinized capillary after administration, and plasma was separated by centrifugation. Constant volume of plasma was extracted with t-butyl-methyl-ether three times and the organic phase was evaporated and dissolved in the HPLC initial phase. Constant volume of the organic phase was applied to the HPLC system equipped with an ultraviolet detector, and plasma drug concentration was determined with the reverse phase column. The time to reach the maximal concentration (Tmax), the mean residence time (MRT) and the mean absorption time (MAT) were calculated from measured values.
The target of the next data set is PDE type III (Canis lupus familiaris, UniProt A0A8I3NYE0). Particulars: read-out: Inhibition Activity IC50 Type III; PDE type III from canine aorta; 1 μM substrate.
PDE type III, sequence (A0A8I3NYE0 1-1135): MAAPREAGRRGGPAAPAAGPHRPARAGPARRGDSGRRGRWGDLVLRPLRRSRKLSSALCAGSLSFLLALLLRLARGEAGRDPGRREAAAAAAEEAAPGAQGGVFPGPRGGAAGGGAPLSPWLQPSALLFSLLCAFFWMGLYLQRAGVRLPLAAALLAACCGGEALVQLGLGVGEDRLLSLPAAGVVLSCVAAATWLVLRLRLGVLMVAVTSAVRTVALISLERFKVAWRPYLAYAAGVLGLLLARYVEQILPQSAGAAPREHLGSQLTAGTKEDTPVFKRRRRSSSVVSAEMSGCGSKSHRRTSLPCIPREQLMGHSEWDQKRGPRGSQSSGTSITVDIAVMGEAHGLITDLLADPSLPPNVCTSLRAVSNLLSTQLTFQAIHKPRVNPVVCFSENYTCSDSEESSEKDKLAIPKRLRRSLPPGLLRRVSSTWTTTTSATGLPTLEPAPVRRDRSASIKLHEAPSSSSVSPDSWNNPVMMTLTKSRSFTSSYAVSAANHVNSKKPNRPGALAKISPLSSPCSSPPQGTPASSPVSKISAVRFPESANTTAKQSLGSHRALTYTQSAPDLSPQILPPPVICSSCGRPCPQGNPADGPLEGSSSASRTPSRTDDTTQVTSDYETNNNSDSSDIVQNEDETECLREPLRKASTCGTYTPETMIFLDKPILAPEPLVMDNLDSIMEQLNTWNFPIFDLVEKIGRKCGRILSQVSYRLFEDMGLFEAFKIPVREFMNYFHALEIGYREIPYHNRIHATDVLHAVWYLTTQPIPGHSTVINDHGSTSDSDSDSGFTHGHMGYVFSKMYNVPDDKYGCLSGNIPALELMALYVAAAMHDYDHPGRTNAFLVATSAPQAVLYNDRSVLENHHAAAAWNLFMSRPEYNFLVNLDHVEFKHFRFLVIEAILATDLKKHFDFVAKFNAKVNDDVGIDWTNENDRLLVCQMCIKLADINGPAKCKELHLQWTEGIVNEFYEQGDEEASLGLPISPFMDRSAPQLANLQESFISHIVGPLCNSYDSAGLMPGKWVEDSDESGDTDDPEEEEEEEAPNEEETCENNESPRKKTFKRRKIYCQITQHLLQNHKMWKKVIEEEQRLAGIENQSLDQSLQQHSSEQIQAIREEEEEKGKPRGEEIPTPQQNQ

PDE type VI, sequence (P11541 2-856): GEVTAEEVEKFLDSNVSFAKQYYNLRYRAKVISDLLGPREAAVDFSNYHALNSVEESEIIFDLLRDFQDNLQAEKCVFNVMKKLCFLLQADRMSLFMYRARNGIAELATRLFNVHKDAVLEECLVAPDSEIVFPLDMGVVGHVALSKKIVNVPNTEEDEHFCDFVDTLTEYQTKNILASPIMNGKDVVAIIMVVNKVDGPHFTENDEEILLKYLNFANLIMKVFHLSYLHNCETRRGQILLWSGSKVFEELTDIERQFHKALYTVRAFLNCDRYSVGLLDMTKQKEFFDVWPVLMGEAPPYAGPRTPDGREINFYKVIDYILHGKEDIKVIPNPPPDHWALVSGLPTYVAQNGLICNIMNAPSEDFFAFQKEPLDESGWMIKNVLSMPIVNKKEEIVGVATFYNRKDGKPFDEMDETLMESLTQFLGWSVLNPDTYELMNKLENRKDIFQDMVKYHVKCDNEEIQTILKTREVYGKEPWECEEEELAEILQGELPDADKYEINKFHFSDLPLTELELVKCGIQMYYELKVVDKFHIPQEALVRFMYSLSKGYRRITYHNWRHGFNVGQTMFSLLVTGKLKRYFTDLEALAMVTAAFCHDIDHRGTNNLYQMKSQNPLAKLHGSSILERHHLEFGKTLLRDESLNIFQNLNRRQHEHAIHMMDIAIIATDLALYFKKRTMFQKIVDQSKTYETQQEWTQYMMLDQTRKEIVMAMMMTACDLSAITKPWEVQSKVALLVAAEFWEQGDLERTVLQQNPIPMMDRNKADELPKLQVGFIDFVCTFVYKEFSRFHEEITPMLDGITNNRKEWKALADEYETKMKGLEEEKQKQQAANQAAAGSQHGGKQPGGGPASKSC
PDE type VI, sequence (P23439 2-850): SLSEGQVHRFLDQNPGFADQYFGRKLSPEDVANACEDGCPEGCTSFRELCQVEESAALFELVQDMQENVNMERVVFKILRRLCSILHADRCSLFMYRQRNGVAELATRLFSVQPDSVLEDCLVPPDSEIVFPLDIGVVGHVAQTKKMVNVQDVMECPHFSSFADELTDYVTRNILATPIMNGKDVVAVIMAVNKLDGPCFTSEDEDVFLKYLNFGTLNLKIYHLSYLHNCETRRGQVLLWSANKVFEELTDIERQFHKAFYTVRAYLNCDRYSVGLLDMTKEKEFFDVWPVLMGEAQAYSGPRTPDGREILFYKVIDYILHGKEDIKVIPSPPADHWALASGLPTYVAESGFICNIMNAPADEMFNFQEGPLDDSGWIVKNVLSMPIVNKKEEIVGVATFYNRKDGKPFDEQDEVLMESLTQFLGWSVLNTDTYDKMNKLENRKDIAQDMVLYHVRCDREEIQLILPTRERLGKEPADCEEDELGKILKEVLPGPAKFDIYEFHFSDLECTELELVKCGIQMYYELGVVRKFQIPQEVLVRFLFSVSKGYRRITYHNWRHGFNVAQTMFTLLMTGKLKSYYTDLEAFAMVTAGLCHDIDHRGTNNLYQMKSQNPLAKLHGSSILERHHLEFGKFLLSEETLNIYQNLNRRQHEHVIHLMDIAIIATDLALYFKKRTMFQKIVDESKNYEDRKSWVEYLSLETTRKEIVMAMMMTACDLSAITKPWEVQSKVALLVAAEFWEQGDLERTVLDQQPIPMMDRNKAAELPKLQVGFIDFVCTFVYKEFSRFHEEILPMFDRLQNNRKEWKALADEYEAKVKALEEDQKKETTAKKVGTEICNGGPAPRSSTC
Description for in vivo: as §1

On to `CC(=O)N1c2ccccc2-n2ccc(=O)c3cccc1c32`, for which the melting point (in general, the temperature of the solid-liquid transition) is 275 °C (dec.).

In the case of `CN1c2ccccc2-n2ccc(=O)c3cccc1c32`, the melting point was 232.8 to 234.5 °C. Still for that read-out and setting: with `O=c1ccn2c3ccc(Cl)cc3c3cncc1c32` the figure was 280 °C (dec.); with `O=c1ccn2c3c(cc(Cl)cc13)Oc1cc(Cl)ccc1-2`, above 300 °C.

As for `O=c1ccn2c3cnccc3c3cccc1c32`, the melting point is 211.3 °C (dec.). Still for that read-out and setting: under `COc1cc2c3c(c1)c(=O)c(Cc1cccnc1)cn3-c1cc(Br)ccc1O2` stands 277.1 to 280.3 °C; under `COc1cc2c(=O)c(Cc3cccnc3)cn3c4cc(Br)ccc4c(=O)c(c1)c23`, 247.5 to 251.1 °C; under `O=c1c(Cc2cccnc2)cn2c3cc(Br)ccc3c(=O)c3cc(O)cc1c32`, above 300 °C. Still for that read-out and setting: with `COc1cc2c3c(c1)c(=O)c(Cc1cccnc1)cn3-c1cc(Br)ccc1S2` the figure was 185.7 to 187.4 °C; with `O=c1c(Cc2cccnc2)cn2c3c(cc(O)cc13)Sc1ccc(Br)cc1-2`, 297.4 °C (dec.); with `O=c1c(Cc2cccnc2)cn2c3c(cc(OCCCO)cc13)Sc1ccc(Br)cc1-2`, 189.1 to 191.3 °C. Same read-out and setting: under `CN(C)CCCOc1cc2c3c(c1)c(=O)c(Cc1cccnc1)cn3-c1cc(Br)ccc1S2` stands 160.3 to 163.3 °C; under `COc1cc2c3c(c1)c(=O)c(Cc1cccnc1)cn3-c1ccc(Br)cc1S2`, 137.3 to 138.1 °C; under `O=c1c(Cc2cccnc2)cn2c3c(cc(OCCCO)cc13)Sc1cc(Br)ccc1-2`, 215.7 to 218.4 °C. `COc1cc2c3c(c1)c(=O)c(C)cn3-c1cc(Br)ccc1S2` registered a melting point of 231.7 to 233.7 °C. Same read-out and setting: with `Cc1cn2c3c(cc(O)cc3c1=O)Sc1ccc(Br)cc1-2` the figure was above 300 °C. On the same count and under the same terms, with `Cc1cn2c3c(cc(OCCCO)cc3c1=O)Sc1ccc(Br)cc1-2` the figure was 188.9 to 197.8 °C.

Take `COc1cc2c3c(c1)c(=O)c(Cc1ccccc1)cn3-c1cc(Br)ccc1S2`: the melting point was 218.1 to 219.3 °C.

Molecule `O=c1ccn2c3c(cc(Cl)cc13)Sc1cc(Cl)ccc1-2` returned a melting point above 300 °C.

The molecule `O=c1c(Cc2ccccc2)cn2c3c(cc(O)cc13)Sc1ccc(Br)cc1-2` yielded a melting point of 268.1 to 274.3 °C. On the same count and under the same terms, under `O=c1c(Cc2ccccc2)cn2c3c(cc(OCCCO)cc13)Sc1ccc(Br)cc1-2` stands 152 to 168.3 °C; under `COc1cc2c3c(c1)c(=O)c(Cc1cncnc1)cn3-c1cc(Br)ccc1S2`, 206.6 to 210.7 °C. Turning to `O=c1c(Cc2cccnc2)cn2c3c(cccc13)Oc1ccccc1-2` [Example 4, 2-(3-pyridylmethyl)-3H-pyrido[3,2,1-kl]phenoxazin-3-one], in data set [1], the “body weights and general symptoms” value was “nothing abnormal”; the “death of animals until the next day after the end of administration” value is “none of the animals were found to be dead”. As to `CC(=O)N1c2ccccc2-n2cc(Cc3ccccc3)c(=O)c3cccc1c32` [Example 10, 7-acetyl-2-benzyl-3H,7H-pyrido[3,2,1-de]phenazin-3-one], in data set [1], the “body weights and general symptoms” value is listed as “nothing abnormal”; the “death of animals until the next day after the end of administration” value is reported as “none of the animals were found to be dead”. The like results for `O=c1ccn2c3c(cccc13)Nc1ccccc1-2` [Example 14, 3H,7H-pyrido[3,2,1-depphenazin-3-one] were, in that order, “nothing abnormal” and “none of the animals were found to be dead”. The like results for `O=c1c(Cc2cccnc2)cn2c3ccccc3c(=O)c3cccc1c32` [Example 18, 2-(3-pyridylmethyl)-3H,7H-pyrido[3,2,1-de]acridin-3,7-dione] were, in that order, “nothing abnormal” and “none of the animals were found to be dead”. As to `O=c1c(Cc2cccnc2)cn2c3cc(Br)ccc3c(=O)c3cc(OCCCO)cc1c32` [Example 34, 10-bromo-5-(3-hydroxypropyloxy)-2-(3-pyridylmethyl)-3H,7H-pyrido[3,2,1-de]acridin-3,7-dione], the melting point is 165 °C (dec.). The molecule `O=c1c(Cc2cccnc2)cn2c3cc(Br)ccc3c(=O)c3cc(OCc4cccnc4)cc1c32` [Example 35, 10-bromo-2-(3-pyridylmethyl)-5-(3-pyridylmethyloxy)-3H,7H-pyrido[3,2,1-de]acridin-3,7-dione] showed a melting point of 262.4 to 264.6 °C. Besides, the pIC50 (in general, the negative decadic logarithm of the IC50, by convention in mol/L) against PDE type V was 8.74. The same molecule gave a pIC50 against PDE type VI of 7.82. `O=c1c(Cc2cccnc2)cn2c3c(cc(OCc4cccnc4)cc13)Sc1ccc(Br)cc1-2` [Example 39, 10-bromo-2-(3-pyridylmethyl)-5-(3-pyridylmethyloxy)-3H-pyrido[3,2,1-kl]phenothiazin-3-one] showed a melting point of 170.8 to 172.1 °C. The same molecule gave a pIC50 at PDE type V of 8.42. Besides, the pIC50 against PDE type VI was 7.21. In data set [2], the “abnormalities in nasal mucosa during the experimental period” value is recorded as “no abnormalities” and the “irritativeness from the observation at drug administration” value is given as “no irritativeness”. In the case of `O=c1c(Cc2cccnc2)cn2c3c(cc(OCc4ccncc4)cc13)Sc1ccc(Br)cc1-2` [Example 43, 10-bromo-2-(3-pyridylmethyl)-5-(4-pyridylmethyloxy)-3H-pyrido[3,2,1-kl]phenothiazin-3-one], the melting point is 194.2 to 196.1 °C. Moreover, the pIC50 on PDE type V was 8.55. This molecule gave a pIC50 against PDE type VI of 7.44. `O=c1c(Cc2cccnc2)cn2c3c(cc(OCc4ccccn4)cc13)Sc1ccc(Br)cc1-2` [Example 44, 10-bromo-2-(3-pyridylmethyl)-5-(2-pyridylmethyloxy)-3H-pyrido[3,2,1-kl]phenothiazin-3-one] gave a melting point of 94.6 to 96.4 °C. On to `O=c1c(Cc2cccnc2)cn2c3c(cc(OCCN4CCCCC4)cc13)Sc1ccc(Br)cc1-2` [Example 50], for which the melting point is 166.5 to 169 °C. As for `CC(C)N(CCOc1cc2c3c(c1)c(=O)c(Cc1cccnc1)cn3-c1cc(Br)ccc1S2)C(C)C` [Example 51], the negative logarithm of the IC50 (pIC50) against PDE type V is 7.96; on PDE type VI, 6.74.

`CS(=O)(=O)O.CS(=O)(=O)O.O=c1c(Cc2cccnc2)cn2c3c(cc(OCc4cccnc4)cc13)Sc1ccc(Br)cc1-2` [Example 81, 10-bromo-2-(3-pyridylmethyl)-5-(3-pyridylmethyloxy)-3H-pyrido[3,2,1-kl]phenothiazin-3-one dimethanesulfonate] gave a melting point of 238.7 to 242.3 °C. Moreover, in the data set “in vivo”, the MRT – broadly, a mean duration of stay, worked out from the concentration-time curve – is 48 to 60 min and the Tmax (usually the time from dosing to the highest level) lay within 12 to 30 min. Further, the “absorption by intranasal administration” value in data set [3] is “rapid and effective absorption”. Also, in data set [3] (intranasal administration), the “Tmax and MRT in comparison with oral administration” value was “shortened”; the duration entry was “proper duration”; the first-pass effect result is on record as “no first-pass effect”. Moreover, the MAT in data set [3] (intranasal administration, dose 0.3 mg/kg) is given as 0.2 ˜ 0.3 hr.

With `CCCc1nn(C)c2c(=O)[nH]c(-c3cc(S(=O)(=O)N4CCN(C)CC4)ccc3OCC)nc12` [Sildenafil, 5-[2-ethoxy-5-(4-methylpiperazin-1-ylsulphonyl)phenyl]-1-methyl-3-propyl-6,7-dihydro-1H-pyrazolo[4,3-d]pyrimidin-7-one citrate], on PDE type III, the pIC50 is 4.89.
